# How the values were obtained:
# [1] = system: CD34/Sgp90; assay: Interaction of CD34/Sgp90 with L-selectin after inhibition of its sulfation; assay type: cell-based; settings: sulfation inhibited by chlorate treatment
# From the text: The complete loss of reactivity with LEC-IgG establishes the importance of sulfation for binding. […] CD34/Sgp90 is also a sulfated ligand of L-selectin.
# [2] = system: L-selectin; assay: Precipitation of metabolically labelled GlyCAM-1 from lymph node cultures with L-selectin chimera (LEC-IgG); assay type: cell-based
# Experimental: (§1) Slices of mouse lymph nodes were cultured with ^35S-sulfate in the presence and absence of 10 mM sodium chlorate. Detergent lysates were prepared and subjected to precipitation with several reagents that recognize GlyCAM-1. […] Only a background level (0.9% of control) of radioactivity was measured in the precipitate from the chlorate-treated culture.
# (§2) To determine directly whether the fucosylation of GlyCAM-1 was affected by chlorate, ^3H-fucose was employed as a metabolic precursor. […] However, while LEC-IgG precipitated GlyCAM-1 in the control culture, LEC-IgG precipitated only a background level of counts (7% of control) from the chlorate-treated culture and there was no detectable GlyCAM-1.
# (§3) To determine what effect chlorate had on the synthesis of the protein core of GlyCAM-1, we employed ^3H-threonine as a metabolic label. […] With or without chlorate treatment, two antibodies against the core protein of GlyCAM-1 precipitated broad bands that ran at ≈50K.
# (§4) Pooled mesenteric and peripheral lymph nodes from ICR mice (80 mg wet weight per condition) were incubated with (a) 250 µCi of [^35-S]-sodium sulfate (ICN) or (b) 250 µCi of [5,6 ^3-H]-L-fucose (ICN) in the presence or absence of 10 mM Na chlorate (Aldrich) in 0.5 ml of RPMI-1640 with 25 mM HEPES (1/10 sulfate concentration) for 4 h at 37°C. Tissue was extracted with 1.2 ml of 2% Triton X-100 (Boehringer Mannheim) in Dulbecco's PBS containing 1 mM PMSF (Sigma), 1% (v/v) aprotinin (Sigma), 10 µg/ml of pepstatin (Boehringer Mannheim) and 0.02% NaN3 (lysis buffer) as described previously^11. The lysates were boiled 3 min and the supernatants were precleared with 100 µl of Protein A Sepharose (Zymed) overnight. Aliquots of the precleared supernatants were added to 10 µl beads of LEC-IgG-Protein A Sepharose Beads (30 µg LEC-IgG per 10 µl beads), rabbit anti-peptide 2-Protein A beads (10 µl serum per 10 µl beads), rabbit preimmune serum-Protein A beads (10 µl serum per 10 µl beads), Limax flavus agglutinin-Sepharose beads (20 µg protein per 10 µl beads), or Aleuria aurantia agglutinin-Sepharose beads (10 µg protein per 10 µl beads), and incubated for 4 h at 4°C on a rocker. The beads were washed in the lysis buffer (6 times), and the 1/14 aliquots of beads were saved for direct counting by a scintillation counting and the remainder of beads were solubilized in Laemmli sample buffer (without beta mercaptoethanol) and run by on a 10% acrylamide gel (nonreducing condition) with fluorography employing ENHANCE (New England Nuclear). Molecular weight markers (BioRad) were phosphorylase B (97.4 K), BSA (66.2 K), ovalbumin (45 K), carbonic anhydrase (31 K), soybean trypsin inhibitor (21.5 K). LEC-IgG and antiserum were coated on Protein A-Sepharose beads by rocking overnight at 4°C. Lectin beads were prepared by coupling Limax agglutinin (Calbiochem) and AAA (Boehringer Mannheim) to CNBr-activated Sepharose 4B (Sigman). Miller, R., Meth. Enzymol. 138:527-536 (1987).
# (§5) Mouse lymph nodes were labeled with 750 µCi of L-[3-^3H] threonine (Amersham) in 0.5 ml of threonine free-1/10 sulfate concentration-RPMI 1640 containing 25 mM HEPES for 4 h at 37°C in the absence or the presence of 10 mM sodium chlorate. Detergent lysates were boiled, precleared and subjected to precipitation with the indicated reagent as described in Example 1. Conditioned media were precleared and precipitated in parallel. The bead-bound material was analyzed on SDS-PAGE under reducing conditions with fluorography. In the anti-peptide antibody lanes, the ≈50K component was compressed by the immunoglobulin heavy chain.
# [3] = system: GlyCAM-1; assay: [3H]-threonine metabolic labelling of lymph nodes (synthesis of protein core); assay type: cell-based, mouse; settings: presence of chlorate
# Experimental: as §3, §5
# [4] = system: GlyCAM-1; assay: [35S]-sulfate metabolic labelling of lymph node organ culture; precipitation of GlyCAM-1 with peptide antibody or lectins, scintillation counting; assay type: cell-based, mouse
# Experimental: as §1, §4
# Inhibition of GlyCAM-1 sulfation eliminates its interaction and/or binding with L-selectin. This conclusion was reached when aliquots of the same precipitates of Example 1, labeled with (a) [^35-S]-sulfate or (b) [^3-H]-fucose in the presence (dark bars) or absence (cross-hatched bars) of chlorate were subjected to scintillation counting. The percents shown in a given panel (a) (not shown) indicate the percent counts obtained in the presence of chlorate as compared to the absence of chlorate. The values for anti-peptide 2, Limax, and AAA were essentially the same, reflecting the overall reduction in sulfation. In an independent experiment, the corresponding values were: 6% (for LEC-IgG), 35.6% (for anti-peptide 2), 35.3% (for Limax).
# [5] = system: GlyCAM-1; assay: [3H]-fucose metabolic labelling of lymph node organ culture (fucosylation of GlyCAM-1); assay type: cell-based, mouse
# Experimental: as §2
# Pooled mesenteric and peripheral lymph nodes from ICR mice (80 mg wet weight per condition) were incubated with (a) 250 µCi of [^35-S]-sodium sulfate (ICN) or (b) 250 µCi of [5,6 ^3-H]-L-fucose (ICN) in the presence or absence of 10 mM Na chlorate (Aldrich) in 0.5 ml of RPMI-1640 with 25 mM HEPES (1/10 sulfate concentration) for 4 h at 37°C. Tissue was extracted with 1.2 ml of 2% Triton X-100 (Boehringer Mannheim) in Dulbecco's PBS containing 1 mM PMSF (Sigma), 1% (v/v) aprotinin (Sigma), 10 µg/ml of pepstatin (Boehringer Mannheim) and 0.02% NaN3 (lysis buffer) as described previously^11. The lysates were boiled 3 min and the supernatants were precleared with 100 µl of Protein A Sepharose (Zymed) overnight. […]
# [6] = system: GlyCAM-1; assay: Label incorporation into GlyCAM-1 immunoprecipitated (CAM02 Ab) from conditioned medium of lymph node organ culture; assay type: cell-based, mouse
# Experimental: (^3H-Gal)-labeled GlyCAM-1 was produced in mouse lymph node organ cultures as described in Examples 1-4 above. Undersulfated GlyCAM was generated by organ culture of murine lymph nodes in medium containing 10 mM Na-chlorate, a known inhibitor of sulfation. GlyCAM-1 was isolated from the conditioned media by immunoprecipitation with an antibody to a peptide sequence in the core protein of GlyCAM-1 (CAM02 Ab), as described in Examples 1-4 above. […] Desialylation of GlyCAM-1 was accomplished in all cases by treatment with Arthrobacter ureafacens sialidase (1.75 units/ml) in 120 mM Na acetate, pH 5.5 (18 h 37°C).
# [7] = chlorate 10 mM in organ cultures of lymph nodes
compound,measurement,setting,value
"[O-][Cl+2]([O-])O [chlorate, sodium chlorate]",ability of CD34/Sgp90 to interact with L-selectin,[1],drastically inhibited
same,"percent counts in the presence of chlorate as compared to the absence, LEC-IgG","[2]; [^35-S]-sulfate label, independent experiment, 10000 µM",6%
same,counts precipitated by LEC-IgG,"[2]; ^3H-fucose label, chlorate-treated culture, 10000 µM",7 % of control
same,GlyCAM-1 component precipitated by LEC-IgG from conditioned medium,"[2]; ^3H-threonine label, chlorate present during the culture",did not react with any components
same,radioactivity in the LEC-IgG precipitate,"[2]; ^35S-sulfate label, 10 mM sodium chlorate, detergent lysates",0.9 % of control
same,GlyCAM-1 band precipitated by LEC-IgG (SDS-PAGE),"[2]; ^35S-sulfate label, chlorate-treated culture, strong band in control",failed to precipitate a detectable GlyCAM-1 band
same,binding to L-selectin (GlyCAM and CD34),[2]; [7],completely eliminated
same,binding of LEC-IgG to GlyCAM,[2]; culture in chlorate,completely abrogated
same,rate of synthesis of the protein core of GlyCAM or CD34,[3],did not affect
same,activity at 10000 µM,"[4]; Mus musculus, [^35-S]-sulfate label, independent experiment, read-out: percent counts in the presence of chlorate as compared to the absence, Limax",35.3%
same,activity at 10000 µM,"[4]; Mus musculus, [^35-S]-sulfate label, independent experiment, read-out: percent counts in the presence of chlorate as compared to the absence, anti-peptide 2",35.6%
same,activity at 10000 µM,"[4]; Mus musculus, ^35S-sulfate label, 10 mM sodium chlorate, detergent lysates, scintillation counting, read-out: radioactivity immunoprecipitated by the peptide antibody",12%
same,activity at 10000 µM,"[4]; Mus musculus, ^35S-sulfate label, 10 mM sodium chlorate, detergent lysates, read-out: ^35S-sulfate precipitated by Aleuria aurentia lectin",13.7%
same,activity at 10000 µM,"[4]; Mus musculus, ^35S-sulfate label, 10 mM sodium chlorate, detergent lysates, read-out: ^35S-sulfate precipitated by Limax agglutinin",11.4%
same,inhibition at 10000 µM,"[4]; Mus musculus, chlorate 10 mM in organ cultures of lymph nodes, read-out: reduction of incorporation of ^35S-SO4 into GlyCAM and CD34",~90%
same,activity at 10000 µM,"[4]; Mus musculus, inferred from the ratio of counts precipitated by the peptide antibody, read-out: sulfate incorporation into GlyCAM-1",10 to 15%
same,Binding of GlyCAM to a fucose-specific lectin (Aleuria aurantia agglutinin),[4]; [7],unchanged
same,Binding of GlyCAM to a sialic acid specific lectin (Limax agglutinin),[4]; [7],unchanged
same,cpm precipitated by the peptide antibody,"[5]; ^3H-fucose label, detergent lysates, chlorate versus control cultures",approximately the same number of cpm
same,level of fucosylation (incorporation of [^3H]-fucose into GlyCAM),[5]; presence of chlorate,not affected
same,"[^3H]-galactose activity incorporated by GlyCAM, presence versus absence of chlorate","[6]; 10 mM Na-chlorate, 0.25 mCi input",about the same
same,incorporation of [^35S]-sulfate into GlyCAM,"[6]; 10 mM Na-chlorate, 0.5 mCi input, control 1.75 x 10^6 cpm",0.16 x 10^6 cpm
same,activity at 10000 µM,"[6]; Mus musculus, 10 mM Na-chlorate, 0.5 mCi input, read-out: incorporation of [^35S]-sulfate into GlyCAM",10%
same,[^3H]-galactose activity incorporated by GlyCAM,"[6]; presence or absence of chlorate, 0.25 mCi input",2 x 10^6 cpm

# From patent EP0750511B1, “TREATING IN[…] THE ADMINISTRATION OF SPECIFIC SULFATASE ENZYMES AND/OR SULFATION INHIBITOR” (THE REGENTS OF THE UNIVERSITY OF CALIFORNIA, priority 1994, dated 1995)
